{
  "source": "patent US8476253B2",
  "about": "“Amide derivative” (Daiichi Sankyo Company, Limited, priority 2009, dated 2013)",
  "key": {"neurokinin NK1 receptor": {"biological_target": "T1, neurokinin NK1 receptor (Cavia porcellus, UniProt P30547)", "T1 construct": "Using healthy guinea pigs (body weight, 350 to 550 g; Hartley male guinea pigs); from tissue; host or cells: live anaesthetised Hartley male guinea pigs (airway, in vivo)", "T1 sequence (P30547 whole entry)": "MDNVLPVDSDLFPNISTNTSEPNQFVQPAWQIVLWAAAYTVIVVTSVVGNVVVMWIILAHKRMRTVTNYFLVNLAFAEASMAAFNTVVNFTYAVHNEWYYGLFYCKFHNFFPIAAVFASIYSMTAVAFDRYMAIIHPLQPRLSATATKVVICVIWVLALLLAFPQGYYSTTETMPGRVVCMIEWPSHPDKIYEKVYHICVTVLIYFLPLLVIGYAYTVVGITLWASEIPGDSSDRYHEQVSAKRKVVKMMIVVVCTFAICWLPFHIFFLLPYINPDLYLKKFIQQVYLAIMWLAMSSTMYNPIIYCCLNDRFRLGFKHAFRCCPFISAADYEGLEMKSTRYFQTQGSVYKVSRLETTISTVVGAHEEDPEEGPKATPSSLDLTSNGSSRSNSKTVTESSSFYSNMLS", "assay": "Effect of suppressing substance P-induced airway contraction (in vivo, intratracheal administration)", "parameters": "species or system guinea pig", "conditions": "guinea pig; guinea pigs, intratracheal administration 60 minutes before 20 μg/kg i.v. SP; AUC of increase in airway pressure over 10 minutes; read-out: ID50 (the source's name)", "how_it_was_run": "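Anaesthetised, gallamine-paralysed, ventilated male Hartley guinea pigs; compound in 5% glucose given intratracheally 60 min before 20 μg/kg i.v. substance P. Airway-pressure increase AUC over 10 min, inhibition versus vehicle group, expressed as ID50.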"}, "substance P receptor": {"biological_target": "T2, substance P receptor (Cavia porcellus, UniProt P30547)", "T2 construct": "A preparation of a crude lung membrane sample was prepared; from tissue; host or cells: guinea-pig lung (crude membrane sample)", "T2 sequence (P30547 whole entry)": "as above", "assay": "Test for binding to guinea-pig substance P receptor (crude lung membrane sample)", "conditions": "crude guinea-pig lung membrane sample, [3H]substance P; Ki from IC50 and Kd; read-out: Ki", "experimental": "A preparation of a crude lung membrane sample was prepared, and a test for binding of a test substance to the sample was performed according to the method described in EP0336230A2.\nThe binding effect of the test substance to a substance P receptor was calculated as an affinity (Ki) of the test substance for the substance P receptor from a 50% binding concentration (IC50) and an affinity (Kd) of [^3H]substance P for the substance P receptor."}, "neurokinin NK2 receptor": {"biological_target": "T3, neurokinin NK2 receptor (Cavia porcellus, UniProt Q64077)", "T3 construct": "Using healthy guinea pigs (body weight, 350 to 550 g; Hartley male guinea pigs); from tissue; host or cells: live anaesthetised Hartley male guinea pigs (airway, in vivo)", "T3 sequence (Q64077 1-402)": "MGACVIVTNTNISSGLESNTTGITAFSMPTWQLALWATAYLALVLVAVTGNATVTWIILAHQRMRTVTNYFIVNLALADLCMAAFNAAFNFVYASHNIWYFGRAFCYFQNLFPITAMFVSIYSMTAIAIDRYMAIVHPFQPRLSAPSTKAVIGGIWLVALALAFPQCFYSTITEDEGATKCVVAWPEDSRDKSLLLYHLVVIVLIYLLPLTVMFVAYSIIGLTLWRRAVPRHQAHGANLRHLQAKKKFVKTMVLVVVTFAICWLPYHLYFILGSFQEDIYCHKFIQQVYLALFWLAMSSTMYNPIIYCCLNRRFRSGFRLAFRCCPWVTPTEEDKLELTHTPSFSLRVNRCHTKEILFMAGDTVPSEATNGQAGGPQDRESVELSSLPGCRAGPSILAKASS", "assay": "Effect of suppressing neurokinin A-induced airway contraction (in vivo, intratracheal administration)", "parameters": "species or system guinea pig", "conditions": "guinea pig; guinea pigs, intratracheal administration 60 minutes before 4 μg/kg i.v. NKA; AUC of increase in airway pressure over 10 minutes; read-out: ID50 (the source's name)", "how_it_was_run": "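Anesthetized, gallamine-paralysed, ventilated male Hartley guinea pigs received compound in 5% glucose intratracheally 60 minutes before 4 μg/kg NKA i.v. AUC of airway pressure increase over 10 minutes gave inhibition versus vehicle controls, expressed as ID50.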"}},
  "note": "Counter-ions that a name gives are not always drawn.",
  "data": [
    {"smiles": "CN(CCN1CCC(OC(=O)Nc2ccccc2-c2ccccc2)CC1)C(=O)CCCN(C)c1ccc(C(=O)N(C)CCCN(C)C(=O)CO[C@H]2Cc3ccccc3C23CCN(CC[C@@]2(c4ccc(F)cc4)CN(C(=O)c4cc(C(F)(F)F)cc(C(F)(F)F)c4)CO2)CC3)cc1", "note": "[Example 36, 1-{2-[{4-[{4-[{3-[({[(2S)-1′-{2-[(5R)-3-[3,5-Bis(trifluoromethyl)benzoyl]-5-(4-fluorophenyl)-1,3-oxazolidin-5-yl]ethyl}-2,3-dihydrospiro[indene-1,4′-piperidin]-2-yl]oxy}acetyl)(methyl)amino]propyl}(methyl)carbamoyl]phenyl}(methyl)amino]butanoyl}(methyl)amino]ethyl}piperidin-4-yl biphenyl-2-ylcarbamate trihydrochloride]", "values": [
      {"measurement": "ED50", "setting": "neurokinin NK1 receptor", "value": 0.0236, "unit": "mg/kg"},
      {"measurement": "Ki", "setting": "substance P receptor", "value": 1.4, "unit": "nM"},
      {"measurement": "ED50", "setting": "neurokinin NK2 receptor", "value": 0.0168, "unit": "mg/kg"}
    ]}
  ]
}
